Results taken from ChEMBL document CHEMBL1142118, “Halogenated monoterpene aldehydes from the South African marine alga Plocamium corallorhiza” (J Nat Prod, 2007).
pIC50: −log10 of the molar value.

Test: Cytotoxicity against WHCO1 cells after 48 hrs by MTT assay
Format: cell-based
Conditions: Homo sapiens, WHCO1, 48 h

Row | Structure (SMILES) | pIC50
1 | C=C(C)C(Br)CC(Br)/C(C)=C/C=O (configuration not stated) | 5.12
2 | CC(/C=C/C(Cl)C(C)(Cl)CBr)=C\C=O (configuration not stated) | 4.19
